From patent US6964949B2, “Pharmaceutical compositions for promoting the growth of gram-positive bacilli and increasing the acidity in the vagina and the use thereof” (Shanghai Jiao Da Onlly Co., Ltd., priority 2000, dated 2005)

How the values were obtained:
[1] = system: L. acidophilus, C. albicans, C. tropicalis; test: Fluconazole in Sucrose Broth, Group 1 co-culture: turbidity and Gram-stained smear; format: cell-based; set-up: key to Turbidity, Group 1: ++: The cultural fluid was heavily turbid; +: The cultural fluid was turbid; +/−: The turbidity of the cultural fluid was not affirmative; key to Microbes (Gram-stained smear), Group 1: Lb: Lactobacilli; Candida; conditions: 18 hours, 37° C., candle jar
Protocol: (§1) • 1. Materials: • Sucrose Broth: 10.0% sucrose, 2.0% yeast extract, K2HPO40.5%, MgSO40.05%, MnSO40.1%, pH adjusted to 6.2, sterilized. • Anti-fungi drug: Fluconazole • Clinically isolated Lactobacillus strains: Lactobacillus acidophilus, Lactobacillus crispatus, and Lactobacillus jensenii. Three lactobacillus suspensions were prepared separately from each of these three lactobacillus strains. • Clinically isolated Candida strains: Candida albicans and Candida tropicalis. Two Candidal suspensions were prepared separately from each of these two candida strains. • 2.
(§2) • There were six tubes in each group and each tube contained 2ml Sucrose Broth and different concentration of Fluconazole, as shown in Table 1. • The turbidity values of three lactobacillus suspensions and two Candidal suspensions were tested by Turbidimeter and adjusted to 0.3. 50 ul of each prepared lactobacillus suspension and Candidal suspension were separately added into tubes according to Table 1. • All of these experimental tubes were put into candle jars as soon as the lactobacillus suspensions and candidal suspensions were added, and then incubated at 37° C. for 18 hours. • After 18 hours' incubation the turbidity of each tube was examined and Gram-stained smear of cultural fluid of corresponding tube was observed under microscopy to check microbes. Results

[2] = system: C. albicans, C. tropicalis; test: Fluconazole in Sucrose Broth, Group 4 (Candidal group): turbidity and Gram-stained smear; format: cell-based, Candida albicans, Candida tropicalis; set-up: key to Turbidity, Group 4: ++: The cultural fluid was heavily turbid; +: The cultural fluid was turbid; +/−: The turbidity of the cultural fluid was not affirmative; conditions: 18 hours; for Turbidity, Group 4: 37° C., candle jar
Protocol: as §1, §2

[3] = system: three Lactobacillus strains; test: Fluconazole in Sucrose Broth: growth of the three Lactobacillus strains (Groups 1-3); format: cell-based; conditions: 400 ug/ml of Fluconazole, 18 hours
Protocol: as §1, §2

[4] = system: L. jensenii, C. albicans, C. tropicalis; test: Fluconazole in Sucrose Broth, Group 3 co-culture: turbidity and Gram-stained smear; format: cell-based, Lactobacillus jensenii, Candida albicans, Candida tropicalis; set-up: key to Turbidity, Group 3: ++: The cultural fluid was heavily turbid; +: The cultural fluid was turbid; +/−: The turbidity of the cultural fluid was not affirmative; key to Microbes (Gram-stained smear), Group 3: Lb: Lactobacilli; Candida; conditions: 18 hours, 37° C., candle jar
Protocol: as §1, §2

[5] = system: L. crispatus, C. albicans, C. tropicalis; test: Fluconazole in Sucrose Broth, Group 2 co-culture: turbidity and Gram-stained smear; format: cell-based; set-up: key to Turbidity, Group 2: ++: The cultural fluid was heavily turbid; +: The cultural fluid was turbid; +/−: The turbidity of the cultural fluid was not affirmative; key to Microbes (Gram-stained smear), Group 2: Lb: Lactobacilli; Candida; conditions: 18 hours, 37° C., candle jar
Protocol: as §1, §2

Gram-negative cocci = test: Experiment Example 2: comparison of saccharides, specimen culture, Gram smear; format: cell-based; conditions: 10.0% saccharide, 1.0% yeast extract, 1.6% xanthan gum (dextrin 0.5%, starch none), pH 6.2, candle jar, 37° C.
Description: (§3) • (1)The preparation of the compositions: Different saccharides were used respectively to prepare the following compositions according to the methods mentioned above: glucose, fructose, galactose, mannose, maltose, sucrose, lactose, lactulose, mycose, cellobiose, melibiose, melitose, malto-oligosaccharide, isomaltooligosaccharide and fructooligosaccharide, dextrin, starch, and glycogen: • A. 5% glucose, 1.0% yeast extract, 1.6% xanthan gum, pH adjusted to 6.2; • B. 5% fructose, 1.0% yeast extract, 1.6% xanthan gum, pH adjusted to 6.2; • C. 5% galactose, 1.0% yeast extract, 1.6% xanthan gum, pH adjusted to 6.2; • D. 5% mannose, 1.0% yeast extract, 1.6% xanthan gum, pH adjusted to 6.2; • E. 10.0% maltose, 1.0% yeast extract, 1.6% xanthan gum, pH adjusted to 6.2; • F. 10.0% sucrose, 1.0% yeast extract, 1.6% xanthan gum, pH adjusted to 6.2; • G. 10.0% lactose, 1.0% yeast extract, 1.6% xanthan gum, pH adjusted to 6.2; • H. 10.0% lactulose, 1.0% yeast extract, 1.6% xanthan gum, pH adjusted to 6.2; • I. 10.0% cellobiose, 1.0% yeast extract, 1.6% xanthan gum, pH adjusted to 6.2; • J. 10.0% mycose, 1.0% yeast extract, 1.6% xanthan gum, pH adjusted to 6.2; • K. 10.0% melibiose, 1.0% yeast extract, 1.6% xanthan gum, pH adjusted to 6.2; • L. 10.0% melitose, 1.0% yeast extract, 1.6% xanthan gum, pH adjusted to 6.2; • M. 10.0% maltooligosaccharide, 1.0% yeast extract, 1.6% xanthan gum, pH adjusted to 6.2; • N. 10.0% isomaltooligosaccharide, 1.0% yeast extract, 1.6% xanthan gum, pH adjusted to 6.2; • O. 10.0% fructooligosaccharide, 1.0% yeast extract, 1.6% xanthan gum, pH adjusted to 6.2; • P. 10.0% dextrin, 1.0% yeast extract, 0.5% xanthan gum, pH adjusted to 6.2; • Q. 10.0% starch, 1.0% yeast extract, pH adjusted to 6.2; • R. 10.0% glycogen, 1.0% yeast extract, 1.6% xanthan gum, pH adjusted to 6.2. • (2)The preparation of the test tubes: The compositions prepared above were filled into test tubes, with each tube containing 5 ml, sterilized, and kept until use for experiment. • (3) Specimen suspension: Vaginal secretion was taken from one of the patients suffering from typical bacterial vagmosis with a cotton swab, then the swab was washed in 2 ml sterilized Trypcase-soy Broth immediately, and thus the specimen suspension was ready. […] Then the tubes were placed in a candle jar and cultivated at 37° C. After 24 hours and 48 hours' culture, culture samples were taken respectively from each of the tubes, then the Gram smears of the samples were observed and the pH values of culture samples were tested. […] Meanwhile the pH values in most of the composition tubes decreased to different levels. […] And maltose and sucrose exert better effect in promoting the growth of Gram-positive bacilli and the production of acids than that of the other kinds of oligosaccharides.

Gram-negative bacilli = test: as above; format: cell-based; conditions: 10.0% saccharide, 1.0% yeast extract, 1.6% xanthan gum (dextrin 0.5%, starch none), pH 6.2, candle jar, 37° C.
Description: as §3

Gram-positive cocci = test: as above; format: cell-based; conditions: 10.0% saccharide, 1.0% yeast extract, 1.6% xanthan gum (dextrin 0.5%, starch none), pH 6.2, candle jar, 37° C.
Description: as §3

Gram-positive bacilli = test: as above; format: cell-based; conditions: 10.0% saccharide, 1.0% yeast extract, 1.6% xanthan gum (dextrin 0.5%, starch none), pH 6.2, candle jar, 37° C.
Description: as §3

[6] = system: vaginal secretion specimen of a patient suffering from typical bacterial vaginosis; test: Experiment Example 2: pH of culture samples (production of acids); format: cell-based; conditions: 10.0% saccharide, 1.0% yeast extract, 1.6% xanthan gum (dextrin 0.5%, starch none), pH 6.2, candle jar, 37° C.
Description: as §3

With `OC(Cn1cncn1)(Cn1cncn1)c1ccc(F)cc1F` [Fluconazole] the “Microbes (Gram-stained smear), Group 1” value ([1]; Fluconazole 25 ug/ml) was “Lb”, the “Turbidity, Group 1” value ([1]; Fluconazole 25 ug/ml) was “++” and the “Microbes (Gram-stained smear), Group 1” value ([1]; Fluconazole 50 ug/ml) was “Lb”. The “Turbidity, Group 1” value ([1]; Fluconazole 50 ug/ml) was “++”, the “Microbes (Gram-stained smear), Group 1” value ([1]; Fluconazole 100 ug/ml) was “Lb” and the “Turbidity, Group 1” value ([1]; Fluconazole 100 ug/ml) was “++”. The “Microbes (Gram-stained smear), Group 1” value ([1]; Fluconazole 200 ug/ml) was “Lb”, the “Turbidity, Group 1” value ([1]; Fluconazole 200 ug/ml) was “++” and the “Microbes (Gram-stained smear), Group 1” value ([1]; Fluconazole 400 ug/ml) was “Lb”. For the same compound, the “Turbidity, Group 1” value ([1]; Fluconazole 400 ug/ml) was “++”, the “growth of the two Candidal strains” value ([2]; 25 ug/ml or greater concentration of Fluconazole) was “inhibited the growth” and the “Turbidity, Group 4” value ([2]; Fluconazole 25 ug/ml) was “+/−”. The “Turbidity, Group 4” value ([2]; Fluconazole 50 ug/ml) was “+/−”, the “Turbidity, Group 4” value ([2]; Fluconazole 100 ug/ml) was “+/−” and the “Turbidity, Group 4” value ([2]; Fluconazole 200 ug/ml) was “+/−”. For the same compound, the “Turbidity, Group 4” value ([2]; Fluconazole 400 ug/ml) was “+/−”, the “growth of three Lactobacillus strains” value [3] was “didn't inhibit the growth” and the “Microbes (Gram-stained smear), Group 3” value ([4]; Fluconazole 25 ug/ml) was “Lb”. The “Turbidity, Group 3” value ([4]; Fluconazole 25 ug/ml) was “++”, the “Microbes (Gram-stained smear), Group 3” value ([4]; Fluconazole 50 ug/ml) was “Lb” and the “Turbidity, Group 3” value ([4]; Fluconazole 50 ug/ml) was “++”. For the same compound, the “Microbes (Gram-stained smear), Group 3” value ([4]; Fluconazole 100 ug/ml) was “Lb”, the “Turbidity, Group 3” value ([4]; Fluconazole 100 ug/ml) was “++” and the “Microbes (Gram-stained smear), Group 3” value ([4]; Fluconazole 200 ug/ml) was “Lb”. For the same compound, the “Turbidity, Group 3” value ([4]; Fluconazole 200 ug/ml) was “++”, the “Microbes (Gram-stained smear), Group 3” value ([4]; Fluconazole 400 ug/ml) was “Lb” and the “Turbidity, Group 3” value ([4]; Fluconazole 400 ug/ml) was “++”. For the same compound, the “Microbes (Gram-stained smear), Group 2” value ([5]; Fluconazole 25 ug/ml) was “Lb”, the “Turbidity, Group 2” value ([5]; Fluconazole 25 ug/ml) was “++” and the “Microbes (Gram-stained smear), Group 2” value ([5]; Fluconazole 50 ug/ml) was “Lb”. For the same compound, the “Turbidity, Group 2” value ([5]; Fluconazole 50 ug/ml) was “++”, the “Microbes (Gram-stained smear), Group 2” value ([5]; Fluconazole 100 ug/ml) was “Lb” and the “Turbidity, Group 2” value ([5]; Fluconazole 100 ug/ml) was “++”. For the same compound, the “Microbes (Gram-stained smear), Group 2” value ([5]; Fluconazole 200 ug/ml) was “Lb”, the “Turbidity, Group 2” value ([5]; Fluconazole 200 ug/ml) was “++” and the “Microbes (Gram-stained smear), Group 2” value ([5]; Fluconazole 400 ug/ml) was “Lb”. For the same compound, the “Turbidity, Group 2” value ([5]; Fluconazole 400 ug/ml) was “++”.
In the case of `OC[C@H]1O[C@H](O[C@H]2O[C@H](CO)[C@@H](O)[C@H](O)[C@H]2O)[C@H](O)[C@@H](O)[C@@H]1O` [Mycose, mycose], the “Bacteria G − c (Gram-negative cocci), 24 hours-culture” value (Gram-negative cocci; 24 hours) is reported as “G − c, − (No or less than one bacterium per field of version under oil-immersion lens)”, the “Bacteria G − c (Gram-negative cocci), 48 hours-culture” value (Gram-negative cocci; 48 hours) is reported as “G − c, − (No or less than one bacterium per field of version under oil-immersion lens)” and the “Bacteria G − b (Gram-negative bacilli), 24 hours-culture” value (Gram-negative bacilli; 24 hours) is reported as “G − b, + (1-9 bacteria per field of vision under oil-immersion lens)”. For the same compound, the “Bacteria G − b (Gram-negative bacilli), 48 hours-culture” value (Gram-negative bacilli; 48 hours) was “G − b, ++ (About 10-99 bacteria per field of vision under oil-immersion lens)”, the “Bacteria G + c (Gram-positive cocci), 24 hours-culture” value (Gram-positive cocci; 24 hours) was “G + c, + (1-9 bacteria per field of vision under oil-immersion lens)” and the “Bacteria G + c (Gram-positive cocci), 48 hours-culture” value (Gram-positive cocci; 48 hours) was “G + c, + (1-9 bacteria per field of vision under oil-immersion lens)”. For the same compound, the “Bacteria G + b (Gram-positive bacilli), 24 hours-culture” value (Gram-positive bacilli; 24 hours) was “G + b, ++ (About 10-99 bacteria per field of vision under oil-immersion lens)”, the “Bacteria G + b (Gram-positive bacilli), 48 hours-culture” value (Gram-positive bacilli; 48 hours) was “G + b, +++ (About 100 bacteria or more per field vision under oil-immersion lens, even uncountable)” and the “pH, 24 hours-culture” value ([6]; 24 hours) was 4.8. The “pH, 48 hours-culture” value ([6]; 48 hours) was 4.6-4.8.
